Data set [1] deals with nitric oxide (NO) production in RAW 264.7 cells. Nature of the data set: Nitric oxide (NO) production inhibitory assay, LPS-stimulated RAW 264.7 cells, Griess reagent. It is filed as cell-based. The note with it: for inhibition at 100 µg/mL: read-out: % of NO Inhibition at 100 µg/mL; for IC50: read-out: NO Production Inhibition IC50. On the procedure:
This assay was performed as previously described. […] After 24 h, 100 µL of Griess reagent was added to the samples for 10 min. […] Additionally, the data are presented as the IC50, which was calculated with GraphPad Prism 6.0 software.

Data set [2] in a line: Cytotoxicity assay against leukemic K562 cells, MTT. As to conditions: human, K562 leukemic cells.
Experimental: (§1) Lung cancer A549 and colorectal cancer SW480 cells were maintained with Dulbecco’s modified Eagle’s medium (DMEM) containing 10% fetal bovine serum (FBS) and 1% penicillin/streptomycin. Leukemic K562 cells were cultured in RPMI-1640 supplemented with 10% fetal bovine serum (FBS) and 1% penicillin/streptomycin. All cells were cultured in 96-well plates at 37 °C in 5% CO2, followed by treatment with the sample for 24 h. After the incubation period, 0.5 mg/mL MTT was added to the cells and left for 4 h. The formazan was dissolved in DMSO and measured at 570 nm using Biochrom EZ Read 400 ELISA microplate reader (Biochrom Ltd., Cambridge, UK).
The nature of data set [3]: Cytotoxicity assay in mammalian cells (RAW 264.7), MTT. The note with it: mouse, RAW 264.7 cells.
Experimental: (§2) Cell viability was measured by the MTT assay. RAW 264.7 cells were seeded at 4 × 10^4 cells/well in 96-well plates and incubated at 37 °C and 5% CO2 overnight. Cells were treated with different concentrations of tea extracts, including 3.125, 6.25, 12.5, 25, 50, and 100 µg/mL, for 24 h. After 24 h, cells were washed with PBS and incubated with 0.5 mM MTT reagent for 4 h. The detection of formazan at 570 nm was performed with a Biochrom EZ Read 400 ELISA microplate reader (Biochrom Ltd., Cambridge, UK). The data were calculated as IC50 values with GraphPad Prism 6.0 software.
Data set [4] can be described thus: Cytotoxicity assay against lung cancer A549 cells, MTT. The note with it: human, A549 lung cancer cells.
Experimental: as §1
The nature of data set [5]: Cytotoxicity assay against colorectal cancer SW480 cells, MTT. The note with it: human, SW480 colorectal cancer cells.
Experimental: as §1
Another data set concerns leukemic K562 cells. Nature of the data set: Cytotoxicity assay against leukemic K562 cells, MTT. The note with it: Homo sapiens, K562, 24 h, read-out: IC50 cytotoxicity K562 (Leukemic Cells).
The subject of a further data set is lung cancer A549 cells. Nature of the data set: Cytotoxicity assay against lung cancer A549 cells, MTT. As to conditions: Homo sapiens, A549, 24 h, read-out: IC50 cytotoxicity A549 (Lung Cancer).
The subject of data set [6] is colorectal cancer SW480 cells. Nature of the data set: Cytotoxicity assay against colorectal cancer SW480 cells, MTT. As to conditions: Homo sapiens, SW480, 24 h, read-out: IC50 cytotoxicity SW480 (Colorectal Cancer).
Experimental: as §1
A short description of the next data set: in vitro. As to conditions: mouse.
For data set [7], the system named is lung cancer (A549) cell line. The arrangement: method as in doi:10.1007/s10600-015-1259-y. As to conditions: 30 µg/mL; cited from earlier work.
The mark [8] stands for this setting: Mus musculus, RAW264.7, 100 µg/mL, LPS 1 µg/mL, 24 h.
[9] abbreviates: Mus musculus, RAW264.7, LPS 1 µg/mL, 24 h.

This is an account of results in publication PMC8224630, “Cytotoxicity and Nitric Oxide Production Inhibitory Activities of Compounds Isolated from the Plant Pathogenic Fungus Curvularia sp” (Journal of Fungi, 2021).

Where two headings read alike, the source gives them in different places.

Experimental for in vitro: as §2

Turning to `CC[C@H](C)[C@@H](OC(C)=O)[C@@H](C)C1=C(N)C(=O)C2=C(O[C@]3(C)CC[C@H]4O[C@@H](C(C)(C)O)CC[C@]4(C)[C@H]3[C@@H]2O)C1=O` [Compound 1, cochlioquinone N], the melting point lay within 185 to 187 °C. In addition, in [1] (setting [8]), the inhibition at 100 µg/mL came out at 51.3 ± 1.65%. Further, the IC50 in data set [1] (setting [9]) was 53.7 µM. The viability at 24 h, 100 µg/mL in [2] is 81.1 ± 3.8%. In addition, the viability at 24 h, 100 µg/mL in data set [3] turned out to be 97.14 ± 0.81%. Besides, the viability at 24 h, 100 µg/mL in data set [4] amounted to 88.5 ± 1.19%. Further, the viability at 24 h, 100 µg/mL in [5] turned out to be 82.6 ± 1.68%.

For the molecule `CC[C@H](C)[C@@H](OC(C)=O)[C@@H](C)C1=CC(=O)C2=C(O[C@]3(C)CC[C@H]4O[C@@H](C(C)(C)O)CC[C@]4(C)[C@H]3[C@@H]2O)C1=O` [Compound 2, cochlioquinone A], in [2], the viability at 24 h, 6.25 µg/mL was determined as 71 ± 1.69%; the viability at 24 h, 12.5 µg/mL came out at 38.4 ± 3.18%; the viability at 24 h, 25 µg/mL was 21 ± 2.61%; the viability at 24 h, 50 µg/mL is 13.3 ± 0.89%. Further, the viability at 24 h, 100 µg/mL in data set [2] worked out at 12.5 ± 1.24%. Besides, in the data set on leukemic K562 cells, the IC50 is 17.6 µM. Moreover, in [3], the IC50 at 24 h was less than 11.7 µM; the viability at 24 h, 6.25 µg/mL was 28.5 ± 1.98%; the viability at 24 h, 12.5 µg/mL came to 16.6 ± 0.52%; the viability at 24 h, 25 µg/mL worked out at 15 ± 0.29%. In addition, in [3], the viability at 24 h, 50 µg/mL was 11.67 ± 0.08% and the viability at 24 h, 100 µg/mL was found to be 10.8 ± 0.09%. In [4], this molecule came in with a viability at 24 h, 6.25 µg/mL of 73.1 ± 1.09%; a viability at 24 h, 12.5 µg/mL of 23.1 ± 1.84%; a viability at 24 h, 25 µg/mL of 17.9 ± 1.93%; a viability at 24 h, 50 µg/mL of 14.8 ± 2.54%. Also, in data set [4], the viability at 24 h, 100 µg/mL turned out to be 13.4 ± 0.48%. The IC50 in the data set on lung cancer A549 cells is 14.3 µM. In addition, in data set [5], the viability at 24 h, 6.25 µg/mL was found to be 30.8 ± 0.4%; the viability at 24 h, 12.5 µg/mL stood at 23.4 ± 0.25%; the viability at 24 h, 25 µg/mL stood at 17.6 ± 0.7%; the viability at 24 h, 50 µg/mL amounted to 15.6 ± 0.77%. Moreover, in data set [5], the viability at 24 h, 100 µg/mL turned out to be 14.9 ± 0.57%. The IC50 in [6] is less than 11.7 µM.

For the molecule `C/C=C(\C)[C@@H](OC(C)=O)[C@@H](C)C1=CC(=O)C2=C(O[C@]3(C)CC[C@H]4O[C@@H](C(C)(C)O)CC[C@]4(C)[C@H]3[C@@H]2O)C1=O` [Compound 3, stemphone], in data set [1] (Mus musculus, RAW264.7, 24 h), the inhibition at 100 µg/mL turned out to be 73.41 ± 0.44% and the IC50 was 32.8 µM. Moreover, in the data set “in vitro”, the viability at 24 h, 100 µg/mL was 71.4 ± 2.67%.

Regarding `CC[C@H](C)[C@@H](OC(C)=O)[C@@H](C)C1=CC(=O)C2=C(O[C@]3(C)CC[C@H]4O[C@@H](C(C)(C)O)CC[C@]4(C)C3=C2)C1=O` [Compound 4, anhydrocochlioquinone A], the “inhibition ratio, cytotoxicity against A549” value in data set [7] is 41%. Also, in data set [2], the viability at 24 h, 6.25 µg/mL came to 19.5 ± 2.62%; the viability at 24 h, 12.5 µg/mL is 14 ± 2.31%; the viability at 24 h, 25 µg/mL was 12.9 ± 0.34%; the viability at 24 h, 50 µg/mL was determined as 11.3 ± 0.4%. In data set [2], this molecule returned a viability at 24 h, 100 µg/mL of 10.6 ± 0.2%. Moreover, the IC50 in the data set on leukemic K562 cells is less than 12.1 µM. In data set [3], the concentration for half-maximal inhibition (IC50) at 24 h was less than 12.1 µM; the viability at 24 h, 6.25 µg/mL came to 14.3 ± 0.73%; the viability at 24 h, 12.5 µg/mL amounted to 12.4 ± 0.47%; the viability at 24 h, 25 µg/mL worked out at 12.1 ± 0.42%. In data set [3], this molecule returned a viability at 24 h, 50 µg/mL of 12.8 ± 0.7% and a viability at 24 h, 100 µg/mL of 11.1 ± 0.43%. In data set [4], this molecule displayed a viability at 24 h, 6.25 µg/mL of 12.4 ± 0.17%; a viability at 24 h, 12.5 µg/mL of 11.6 ± 1.05%; a viability at 24 h, 25 µg/mL of 10.2 ± 0.17%; a viability at 24 h, 50 µg/mL of 9.35 ± 0.52%. In [4], the viability at 24 h, 100 µg/mL was 8.4 ± 0.58%. The IC50 in the data set on lung cancer A549 cells is less than 12.1 µM. In [5], the viability at 24 h, 6.25 µg/mL is 17.3 ± 0.33%; the viability at 24 h, 12.5 µg/mL worked out at 15.6 ± 0.39%; the viability at 24 h, 25 µg/mL is 15.4 ± 0.42%; the viability at 24 h, 50 µg/mL amounted to 14.7 ± 0.24%. The viability at 24 h, 100 µg/mL in data set [5] turned out to be 14.4 ± 0.4%. The half-inhibitory concentration (IC50) in data set [6] is less than 12.1 µM.

Regarding `CCCC1C2=C(CCC3C(=O)OC(=O)C3=CC1CC)C(=O)OC2=O` (stereo not shown) [Compound 5, curvulariahawadride], the 50% inhibitory concentration (IC50) was 12.8 µM in [1] (LPS 1 µg/mL, 24 h) and 12.9 µM in data set [1] (Mus musculus, RAW264.7, 24 h, LPS 1 µg/mL, 24 h). Further, the inhibition at 100 µg/mL in data set [1] (setting [8]) was found to be 74 ± 1.14%.

Take `C/C1=C\C[C@]2(C)C(=O)C(O)=C([C@H](C)CO)[C@H]2C/C=C(\C)[C@@H](O)CC/C(C)=C/CC1` [Compound 6, terpestacin]: in data set [1] (LPS 1 µg/mL, 24 h), the “NO Production Inhibition IC50” value was “inactive”. In addition, the inhibition at 100 µg/mL in data set [1] (setting [8]) came out at 41 ± 3.36%. For the same molecule, the viability at 24 h, 100 µg/mL in data set [2] was found to be 99.2 ± 3.84%; in data set [3], 99.3 ± 2.51%; in data set [4] it was 92 ± 3.75%; in [5], 97.7 ± 1.04%.

Regarding `COc1ccc2c(c1)c(CC(=O)O)c(C)n2C(=O)c1ccc(Cl)cc1` [Indomethacin, reference compound], the inhibition at 100 µg/mL in data set [1] (setting [8]) turned out to be 77.45 ± 0.28%. Further, in data set [1] (setting [9]), the IC50 was 73.4 µM.
